According to PubChem BioAssay (NCI):
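Each compound was tested at five concentrations against cells in 96-well plates for 48 hours. GI50 is the concentration that inhibits growth by half. TGI marks complete inhibition of growth.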

Tests used:
Test in all cases: inhibition of tumour cell growth, NCI panel, 48 h
HCT-15 colon = tested on: HCT-15 colon
SNB-19 CNS = tested on: SNB-19 CNS
OVCAR-4 ovarian = tested on: OVCAR-4 ovarian
HCC-2998 colon = tested on: HCC-2998 colon
CAKI-1 renal = tested on: CAKI-1 renal
SK-MEL-5 melanoma = tested on: SK-MEL-5 melanoma
MOLT-4 leukemia = tested on: MOLT-4 leukemia
UACC-257 melanoma = tested on: UACC-257 melanoma
CCRF-CEM leukemia = tested on: CCRF-CEM leukemia
M14 melanoma = tested on: M14 melanoma
UO-31 renal = tested on: UO-31 renal
HOP-92 NSCLC = tested on: HOP-92 NSCLC
SF-268 CNS = tested on: SF-268 CNS
HOP-62 NSCLC = tested on: HOP-62 NSCLC
SK-MEL-28 melanoma = tested on: SK-MEL-28 melanoma
SK-OV-3 ovarian = tested on: SK-OV-3 ovarian
786-0 renal = tested on: 786-0 renal
K-562 leukemia = tested on: K-562 leukemia
SN12C renal = tested on: SN12C renal
OVCAR-8 ovarian = tested on: OVCAR-8 ovarian
SF-295 CNS = tested on: SF-295 CNS
A549 NSCLC = tested on: A549 NSCLC
HCT-116 colon = tested on: HCT-116 colon
KM12 colon = tested on: KM12 colon
SK-MEL-2 melanoma = tested on: SK-MEL-2 melanoma
MALME-3M melanoma = tested on: MALME-3M melanoma
MDA-MB-435 = tested on: MDA-MB-435
T-47D breast = tested on: T-47D breast

Nc1c(C(=O)Nc2ccccc2F)sc2nc3c(cc12)C(=O)CCC3
GI50 (HCT-15 colon): 0.642 µM | TGI (HCT-15 colon): > 100 µM | GI50 (SNB-19 CNS): 2.6 µM | TGI (SNB-19 CNS): > 100 µM | GI50 (OVCAR-4 ovarian): > 21 µM | TGI (OVCAR-4 ovarian): > 100 µM | GI50 (HCC-2998 colon): 2.2 µM | TGI (HCC-2998 colon): > 100 µM | GI50 (CAKI-1 renal): 1.76 µM | TGI (CAKI-1 renal): > 100 µM | GI50 (SK-MEL-5 melanoma): 0.382 µM | TGI (SK-MEL-5 melanoma): > 100 µM | GI50 (MOLT-4 leukemia): > 100 µM | TGI (MOLT-4 leukemia): > 100 µM | GI50 (UACC-257 melanoma): > 100 µM | TGI (UACC-257 melanoma): > 100 µM | GI50 (CCRF-CEM leukemia): 3.46 µM | TGI (CCRF-CEM leukemia): > 100 µM | GI50 (M14 melanoma): 0.645 µM | TGI (M14 melanoma): > 100 µM | GI50 (UO-31 renal): > 100 µM | TGI (UO-31 renal): > 100 µM | GI50 (HOP-92 NSCLC): 0.121 µM | TGI (HOP-92 NSCLC): > 100 µM | GI50 (SF-268 CNS): > 30.6 µM | TGI (SF-268 CNS): > 100 µM | GI50 (HOP-62 NSCLC): 4.12 µM | TGI (HOP-62 NSCLC): > 100 µM | GI50 (SK-MEL-28 melanoma): 6.33 µM | TGI (SK-MEL-28 melanoma): > 100 µM | GI50 (SK-OV-3 ovarian): 0.746 µM | TGI (SK-OV-3 ovarian): > 100 µM | GI50 (786-0 renal): 13.6 µM | TGI (786-0 renal): > 100 µM | GI50 (K-562 leukemia): 0.553 µM | TGI (K-562 leukemia): > 100 µM | GI50 (SN12C renal): > 65.3 µM | TGI (SN12C renal): > 100 µM | GI50 (OVCAR-8 ovarian): 13.8 µM | TGI (OVCAR-8 ovarian): > 100 µM | GI50 (SF-295 CNS): 0.611 µM | TGI (SF-295 CNS): > 92.6 µM | GI50 (A549 NSCLC): 0.898 µM | TGI (A549 NSCLC): > 100 µM | GI50 (HCT-116 colon): 0.646 µM | TGI (HCT-116 colon): > 100 µM | GI50 (KM12 colon): 0.547 µM | TGI (KM12 colon): > 100 µM | GI50 (SK-MEL-2 melanoma): 0.683 µM | TGI (SK-MEL-2 melanoma): > 100 µM | GI50 (MALME-3M melanoma): 1.44 µM | TGI (MALME-3M melanoma): > 100 µM | GI50 (MDA-MB-435): 0.216 µM | TGI (MDA-MB-435): 0.661 µM | GI50 (T-47D breast): 6.79 µM | TGI (T-47D breast): > 100 µM
